The record followed here is patent US20260274814A1, “THIENYL COMPOUNDS FOR THE TREATMENT OF A CENTRAL NERVOUS SYSTEM DISEASE OR DISORDER” (Coreterra Therapeutics, Inc., priority 2023, published 2026).

This assay has as its system mice. The assay can be described thus: Neuropharmacological Assay (SmartCube): automated behavioral signature of compound-treated mice compared with a database of reference drug classes. It is filed as in vivo. The following applies: for minimal effective dose: Mus musculus, ip, read-out: MED; for minimal effective dose / MED: minimal effective dose: dose having 45% or more total activity in SmartCube, i.p., that dose is shown. The procedure, abridged:
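i.p. dosing 15 min pre-test (NMP/PEG/propylene glycol vehicle); 3 doses, 3.0 mg/kg reported. Output = class-match probability per behavioural effect. Potency runs 0.3, 1, 3, 10 mpk (range adjusted as needed); MED = dose with ≥45% total activity.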

Setting [1] is: SmartCube class probability, 3.0 mg/kg i.p., 15 min before test.
The mark [2] stands for this setting: SmartCube class probability, 3.0 mg/kg i.p., 15 min before test, 3 mg/kg.
[3] abbreviates: SmartCube probability class, 3.0 mg/kg dose, i.p. 15 min before the behavioral test.

Each structure is given as a SMILES string. Where a name gives a salt, the structure may show the parent alone. Read-outs that look alike come from different tables or passages of the source.

As for `CNC1COc2c(Cl)csc2C1` (stereo not drawn) [Compound 222, 3-chloro-N-methyl-6,7-dihydro-5H-thieno[3,2-b]pyran-6-amine hydrochloride], for the setting “if only one dose tested”, the minimal effective dose was < 3 mg/kg. In addition, under setting [1], the AD result is given as “ND (^ <4%)”, the AG entry is “ND (^ <4%)”, the AN result is “ND (^ <4%)” and the AP entry is given as “++++ (≥74%)”. Moreover, under setting [1], the AX result is on record as “ND (^ <4%)”, the CE result is on record as “ND (^ <4%)”, the HL result is given as “ND (^ <4%)” and the MS entry is “ND (^ <4%)”. Besides, under setting [1], the PS entry was “ND (^ <4%)”, the SH result is “ND (^ <4%)” and the UK result is “ND (^ <4%)”.

For `CNC1COc2c(F)csc2C1` (stereo not drawn) [Compound 225, 3-fluoro-N-methyl-6,7-dihydro-5H-thieno[3,2-b]pyran-6-amine hydrochloride], the minimal effective dose (if only one dose tested) was < 3 mg/kg. Moreover, under setting [1], the AD result was “ND (^ <4%)”, the AG entry was “ND (^ <4%)”, the AN entry is reported as “ND (^ <4%)” and the AP result was “++++ (≥74%)”. Under setting [1], the AX result is “ND (^ <4%)”, the CE entry is “ND (^ <4%)”, the HL result is “ND (^ <4%)” and the MS entry is given as “ND (^ <4%)”. Besides, under setting [1], the PS entry is “ND (^ <4%)”, the SH result is “ND (^ <4%)” and the UK result was “ND (^ <4%)”.

Consider `Cc1csc2c1OCC(N)C2` (stereo not drawn) [Compound 228, 3-methyl-6,7-dihydro-5H-thieno[3,2-b]pyran-6-amine hydrochloride], for which the minimal effective dose (if only one dose tested) was 1 mg/kg. Further, under setting [1], the AD result is “ND (^ <4%)”, the AG result is “ND (^ <4%)”, the AN result is “ND (^ <4%)” and the AP entry was “ND (^ <4%)”. Under setting [1], the AX entry is recorded as “ND (^ <4%)”, the CE result is “ND (^ <4%)”, the HL entry was “ND (^ <4%)” and the MS entry is given as “ND (^ <4%)”. In addition, under setting [1], the PS result is “ND (^ <4%)”, the SH entry is recorded as “ND (^ <4%)” and the UK result is “ND (^ <4%)”.

Regarding `NC1COc2c(C3CC3)csc2C1` (stereo not drawn) [Compound 229, 3-cyclopropyl-6,7-dihydro-5H-thieno[3,2-b]pyran-6-amine hydrochloride], the minimal effective dose (if only one dose tested) came to 3 mg/kg. Moreover, under setting [1], the AG entry was “ND (^ <4%)”, the AN entry is given as “ND (^ <4%)”, the AP result is reported as “ND (^ <4%)” and the AX result is listed as “++++ (≥74%)”. For the same compound, under setting [1], the CE result is listed as “ND (^ <4%)”, the HL result is given as “+ (≥4%)”, the MS result is recorded as “ND (^ <4%)” and the PS entry is on record as “ND (^ <4%)”. In addition, under setting [1], the SH result is reported as “ND (^ <4%)” and the UK entry is listed as “ND (^ <4%)”.

Regarding `CNC1COc2sccc2C1` (stereo not drawn) [Compound 234, N-methyl-3,4-dihydro-2H-thieno[2,3-b]pyran-3-amine hydrochloride], under “if only one dose tested”, the minimal effective dose was determined as 1 mg/kg. In addition, under setting [1], the AD result is recorded as “ND (^ <4%)”, the AG result was “ND (^ <4%)”, the AN result is given as “ND (^ <4%)” and the AP result is “++++ (≥74%)”. Moreover, under setting [1], the AX entry is on record as “+ (≥4%)”, the CE entry was “ND (^ <4%)”, the HL result is “ND (^ <4%)” and the MS entry is “ND (^ <4%)”. Under setting [1], the PS entry is given as “ND (^ <4%)”, the SH result is “ND (^ <4%)” and the UK result is listed as “ND (^ <4%)”.

Take `CNC1COc2c(C3CC3)csc2C1` (stereo not drawn) [Compound 235, 3-cyclopropyl-N-methyl-6,7-dihydro-5H-thieno[3,2-b]pyran-6-amine hydrochloride]: where the note is “if only one dose tested”, the minimal effective dose is 3 mg/kg. Further, under setting [1], the AD result was “++++ (≥74%)”, the AG result was “ND (^ <4%)”, the AN entry is on record as “ND (^ <4%)” and the AP result is “ND (^ <4%)”. For the same compound, under setting [1], the AX entry was “ND (^ <4%)”, the CE entry is “ND (^ <4%)”, the HL entry is “ND (^ <4%)” and the MS result is “ND (^ <4%)”. Under setting [1], the PS entry is “ND (^ <4%)”, the SH entry was “ND (^ <4%)” and the UK result is listed as “ND (^ <4%)”.

On to `CNC1(C)COc2c(C)csc2C1.Cl` (stereo not drawn) [Compound 239, N, 3,6-trimethyl-6,7-dihydro-5H-thieno[3,2-b]pyran-6-amine hydroachloride], for which, under setting [1], the AG entry was “ND (^ <4%)”, the AN result is recorded as “ND (^ <4%)”, the AP result is “ND (^ <4%)” and the AX result was “ND (^ <4%)”. Moreover, under setting [1], the CE entry is listed as “ND (^ <4%)”, the HL entry is “ND (^ <4%)”, the MS entry is reported as “ND (^ <4%)” and the PS entry is “ND (^ <4%)”. Further, under setting [1], the SH entry is on record as “ND (^ <4%)”. Moreover, under setting [2], the AD result was “ND (^ <4%)” and the UK result is reported as “++ (≥24%)”. For the setting “if only one dose tested”, the MED was >3 mpk.

Turning to `CNC1(C)COc2c(C)csc2C1.Cl` (stereo not drawn) [Compound 240, N, 3,6-trimethyl-6,7-dihydro-5H-thieno[3,2-b]pyran-6-amine hydroachloride], under setting [1], the AG entry is “ND (^ <4%)”, the AN result is recorded as “ND (^ <4%)”, the AP result is “ND (^ <4%)” and the AX result is “ND (^ <4%)”. For the same compound, under setting [1], the CE entry is recorded as “ND (^ <4%)”, the HL result was “ND (^ <4%)”, the MS entry was “ND (^ <4%)” and the PS entry is “ND (^ <4%)”. In addition, the SH entry under setting [1] was “ND (^ <4%)”. Also, under setting [2], the AD entry is “+ (≥4%)” and the UK entry is “+++ (≥49%)”. Besides, the MED (if only one dose tested) turned out to be 3 mpk.

Turning to `CNC1COc2c(C)csc2C1` (stereo not drawn) [Compound 247, N, 3-dimethyl-6,7-dihydro-5H-thieno[3,2-b]pyran-6-amine hydrochloride], for the setting “if only one dose tested”, the minimal effective dose was determined as 3 mg/kg. Besides, under setting [1], the AD result is recorded as “ND (^ <4%)”, the AG entry is given as “ND (^ <4%)”, the AN result was “ND (^ <4%)” and the AP result is reported as “++++ (≥74%)”. Under setting [1], the AX entry was “ND (^ <4%)”, the CE result was “ND (^ <4%)”, the HL entry was “ND (^ <4%)” and the MS result is “ND (^ <4%)”. Further, under setting [1], the PS entry was “ND (^ <4%)”, the SH entry was “ND (^ <4%)” and the UK entry is given as “ND (^ <4%)”.

In the case of `CNC1COc2c(C(F)(F)F)csc2C1` (stereo not drawn) [Compound 248, N-methyl-3-(trifluoromethyl)-6,7-dihydro-5H-thieno[3,2-b]pyran-6-amine hydrochloride], the minimal effective dose (if only one dose tested) was 1 mg/kg. Also, under setting [1], the AD result is “+++ (≥49%)”, the AN entry is given as “ND (^ <4%)”, the AP result is given as “ND (^ <4%)” and the AX result was “ND (^ <4%)”. Under setting [1], the CE entry is given as “ND (^ <4%)”, the HL entry is reported as “ND (^ <4%)”, the MS result is recorded as “ND (^ <4%)” and the PS result is “ND (^ <4%)”. Under setting [1], the SH entry is reported as “ND (^ <4%)” and the UK entry is “ND (^ <4%)”.

Turning to `CNC1COc2c(csc2C(F)(F)F)C1` (stereo not drawn) [Compound 260, N-methyl-7-(trifluoromethyl)-3,4-dihydro-2H-thieno[3,4-b]pyran-3-amine hydrochloride], the minimal effective dose (if only one dose tested) stood at 3 mg/kg. In addition, under setting [1], the AD entry is given as “+ (≥4%)”, the AG entry is recorded as “ND (^ <4%)”, the AN result was “ND (^ <4%)” and the AP result is listed as “ND (^ <4%)”. Under setting [1], the AX result is listed as “ND (^ <4%)”, the CE entry is on record as “ND (^ <4%)”, the HL entry is on record as “ND (^ <4%)” and the MS entry was “ND (^ <4%)”. In addition, under setting [1], the PS entry is recorded as “ND (^ <4%)”, the SH entry is on record as “ND (^ <4%)” and the UK result was “+++ (≥49%)”.

Consider `CNC1(C)COc2ccsc2C1` (stereo not drawn) [Compound 266, N, 6-dimethyl-5,7-dihydrothieno[3,2-b]pyran-6-amine formate salt], for which the minimal effective dose (if only one dose tested) is > 3 mg/kg. Under setting [1], the AD result was “ND (^ <4%)”, the AG result is “ND (^ <4%)”, the AN result was “ND (^ <4%)” and the AP entry is “ND (^ <4%)”. Besides, under setting [1], the AX result was “ND (^ <4%)”, the CE result is reported as “ND (^ <4%)”, the MS result is “ND (^ <4%)” and the PS entry is on record as “ND (^ <4%)”. Also, under setting [1], the SH result is reported as “ND (^ <4%)” and the UK entry was “+ (≥4%)”.

For the compound `CNC1(C)COc2cc(C)sc2C1` (stereo not drawn) [Compound 285, N, 2,6-trimethyl-5,7-dihydrothieno[3,2-b]pyran-6-amine hydrochloride], under “if only one dose was tested”, the minimal effective dose is 3 mg/kg. For the same compound, under setting [3], the AD entry is given as “ND (^ <4%)”, the AG result is listed as “ND (^ <4%)”, the AN entry was “ND (^ <4%)” and the AP result is reported as “ND (^ <4%)”. For the same compound, under setting [3], the AX entry was “ND (^ <4%)”, the CE entry was “ND (^ <4%)”, the HL entry was “ND (^ <4%)” and the MS entry is listed as “ND (^ <4%)”. For the same compound, under setting [3], the PS result is reported as “ND (^ <4%)”, the SH entry is reported as “ND (^ <4%)” and the UK result is on record as “+++ (≥49%)”.
